Test results from patent publication US7405205B2, “Antitumor antisense sequences directed against R1 and R2 components of ribonucleotide reductase” (Lorus Therapeutics Inc., priority 1996, dated 2008).

Key:
[1] = system: B3/SH cells (BALB/c 3T3, empty vector); assay: Drug sensitivity by relative colony forming efficiency; type: cell-based, mouse
[2] = system: N/R2+ASR2 cells (NIH-3T3, R2 and R2 antisense vectors); assay: as above; type: cell-based, mouse
[3] = system: B3/R2c2 cells (clone of B3/mR2); assay: as above; type: cell-based, mouse
[4] = system: H4 (H-4) hydroxyurea resistant mouse L cells; assay: as above; type: cell-based
[5] = system: wild type (W.T.) mouse L cells; assay: as above; type: cell-based
[6] = system: RP3/SH cells (10T½, H-ras and mutant p53); assay: as above; type: cell-based, mouse
[7] = system: RP6/SH cells (10T½, H-ras and mutant p53); assay: as above; type: cell-based, mouse
[8] = system: SC2 hydroxyurea resistant mouse L cells; assay: as above; type: cell-based
[9] = system: LHF hydroxyurea resistant mouse L cells; assay: as above; type: cell-based
[10] = system: H2 (H-2) hydroxyurea resistant mouse L cells; assay: as above; type: cell-based
[11] = system: RP3/ASR2 cells (RP3 with R2 antisense vector); assay: as above; type: cell-based, mouse
[12] = system: N/SH cells (NIH-3T3, empty vector); assay: as above; type: cell-based, mouse
[13] = system: N/R2-4 cells (NIH-3T3, R2 expression vector); assay: as above; type: cell-based, mouse
[14] = system: B3/mR2 cells (BALB/c 3T3, R2 expression vector); assay: as above; type: cell-based, mouse
[15] = system: HeLa S3 cells; assay: Sensitisation to PALA and MTX by antisense, relative colony forming efficiency; type: cell-based, human; conditions: PALA 20 μM, without AS-II-2229B-20
Method: (§1) Drug Selections: Cells ranging in numbers from 500 to 1-2×10^5 were added to 100 mm tissue culture plates in growth medium containing 10% dialyzed fetal bovine serum, and in the absence or presence of drug [Huang et al., 1995a; Choy et al., 1988]. The culture medium was replaced with fresh medium every week for two to three weeks. Surviving cells were visualized by methylene blue staining, and colonies of about 50 cells or more were scored [Huang et al., 1995a]. The relative colony forming efficiency was defined as the ability to produce colonies in the presence of a drug divided by that ability in the absence of drug.
(§2) Colony forming efficiency was determined as previously reported [Huang and Wright, 1994]. The cells were cultured for 24 hours at 37° C. in growth medium with 10% fetal bovine serum. The cells were washed in 5 ml phosphate buffered saline, pH 7.2, once prior to lipofectin+/−oligonucleotide treatment.
(§3) The oligonucleotides being tested were added to cell cultures in the presence of 2.5 μg of DOTMA/DOPE (Lipofectin; Life Technologies, Inc.) for four hours. The oligonucleotide was tested at 0.2 μM unless otherwise indicated. Controls were the cultures treated with lipofectin but without the oligonucleotide. After 4 hours the medium containing the oligonucleotide was removed and washed with 5 ml of growth medium. The cells were then cultured in growth medium containing 10% fetal bovine serum for seven to ten days. Surviving cells were visualized by methylene blue staining, and colonies were scored. In some experiments cell aliquotes were removed from the culture and viability was determined using the trypan blue exclusion test [Phillips, 1973]. Results were analyzed as percent of surviving cells compared to control cells.
(§4) Based on Example 2, treatment of human tumor cells with very low concentrations of short antisense sequences was tested to determine if these constructs could sensitize the tumor cells to inhibitory effects of other chemotherapeutic drugs. […] These observations indicate that antisense compounds targeting the R2 message can act synergistically with well known chemotherapeutic agents.

[16] = system: HeLa 1 mM cells; assay: as above; type: cell-based, human; conditions: without AS-II-2229B-20
Method: as §1, §2, §3, §4

[17] = system: RP6/ASR2 cells (RP6 with R2 antisense vector); assay: Drug sensitivity by relative colony forming efficiency; type: cell-based, mouse

## O=C(O)C[C@H](NC(=O)CP(=O)(O)O)C(=O)O [PALA, N-(phosphonacetyl)-L-aspartate]
[1]; PALA 10 μM
  Relative Colony Forming Efficiencies: 17.9 ± 11.0 × 10^4
[1]; PALA 20 μM
  Relative Colony Forming Efficiencies: 0.39 ± 0.18 × 10^4
[1]; PALA 40 μM
  Relative Colony Forming Efficiencies: 0.35 ± 0.01 × 10^4
[1]; PALA 50 μM
  Relative Colony Forming Efficiencies: 0.24 ± 0.14 × 10^4
[1]; PALA 60 μM
  Relative Colony Forming Efficiencies: 0.12 ± 0.05 × 10^4
[1]; PALA 80 μM
  Relative Colony Forming Efficiencies: 0.17 ± 0.08 × 10^4
[2]; PALA 10 μM
  Relative Colony Forming Efficiencies: 1.81 ± 0.8 × 10^4
[2]; PALA 15 μM
  Relative Colony Forming Efficiencies: 0.58 ± 0.3 × 10^4
[2]; PALA 20 μM
  Relative Colony Forming Efficiencies: 0.04 ± 0.04 × 10^4
[2]; PALA 25 μM
  Relative Colony Forming Efficiencies: 0.04 ± 0.04 × 10^4
[2]; PALA 30 μM
  Relative Colony Forming Efficiencies: 0.12 ± 0.12 × 10^4
[2]; PALA 40 μM
  Relative Colony Forming Efficiencies: 0.04 ± 0.04 × 10^4
[3]; PALA 10 μM
  Relative Colony Forming Efficiencies: 1230.0 ± 97.0 × 10^4
[3]; PALA 20 μM
  Relative Colony Forming Efficiencies: 55.1 ± 15.6 × 10^4
[3]; PALA 40 μM
  Relative Colony Forming Efficiencies: 20.2 ± 6.8 × 10^4
[3]; PALA 50 μM
  Relative Colony Forming Efficiencies: 15.9 ± 4.0 × 10^4
[3]; PALA 60 μM
  Relative Colony Forming Efficiencies: 18.7 ± 5.3 × 10^4
[3]; PALA 80 μM
  Relative Colony Forming Efficiencies: 20.0 ± 4.9 × 10^4
[4]; PALA 20 μM
  Relative Colony Forming Efficiencies: 322.5 ± 36.4 × 10^4
[4]; PALA 30 μM
  Relative Colony Forming Efficiencies: 84.0 ± 30.0 × 10^4
[4]; PALA 40 μM
  Relative Colony Forming Efficiencies: 43.3 ± 9.6 × 10^4
[4]; PALA 50 μM
  Relative Colony Forming Efficiencies: 23.2 ± 0.5 × 10^4
[4]; PALA 60 μM
  Relative Colony Forming Efficiencies: 11.1 ± 1.4 × 10^4
[5]; PALA 20 μM
  Relative Colony Forming Efficiencies: 172.3 ± 126.3 × 10^4
[5]; PALA 30 μM
  Relative Colony Forming Efficiencies: 50.3 ± 20.5 × 10^4
[5]; PALA 40 μM
  Relative Colony Forming Efficiencies: 15.0 ± 7.0 × 10^4
[5]; PALA 50 μM
  Relative Colony Forming Efficiencies: 3.6 ± 1.1 × 10^4
[5]; PALA 60 μM
  Relative Colony Forming Efficiencies: 1.3 ± 0.4 × 10^4
[6]; PALA 10 μM
  Relative Colony Forming Efficiencies: 2569 ± 338 × 10^4
[6]; PALA 20 μM
  Relative Colony Forming Efficiencies: 123.4 ± 19.3 × 10^4
[6]; PALA 30 μM
  Relative Colony Forming Efficiencies: 45.2 ± 7.8 × 10^4
[6]; PALA 40 μM
  Relative Colony Forming Efficiencies: 15.0 ± 4.9 × 10^4
[6]; PALA 50 μM
  Relative Colony Forming Efficiencies: 9.3 ± 3.6 × 10^4
[6]; PALA 60 μM
  Relative Colony Forming Efficiencies: 3.9 ± 1.6 × 10^4
[7]; PALA 10 μM
  Relative Colony Forming Efficiencies: 4619 ± 648 × 10^4
[7]; PALA 20 μM
  Relative Colony Forming Efficiencies: 1220 ± 255 × 10^4
[7]; PALA 30 μM
  Relative Colony Forming Efficiencies: 450 ± 129 × 10^4
[7]; PALA 40 μM
  Relative Colony Forming Efficiencies: 271 ± 68 × 10^4
[7]; PALA 50 μM
  Relative Colony Forming Efficiencies: 109 ± 23 × 10^4
[7]; PALA 60 μM
  Relative Colony Forming Efficiencies: 55.5 ± 13 × 10^4
[8]; PALA 20 μM
  Relative Colony Forming Efficiencies: 850.1 ± 325.2 × 10^4
[8]; PALA 30 μM
  Relative Colony Forming Efficiencies: 187.6 ± 46.4 × 10^4
[8]; PALA 40 μM
  Relative Colony Forming Efficiencies: 37.5 ± 8.7 × 10^4
[8]; PALA 50 μM
  Relative Colony Forming Efficiencies: 47.5 ± 35.8 × 10^4
[8]; PALA 60 μM
  Relative Colony Forming Efficiencies: 17.6 ± 1.2 × 10^4
[9]; PALA 20 μM
  Relative Colony Forming Efficiencies: 233.3 ± 3.6 × 10^4
[9]; PALA 30 μM
  Relative Colony Forming Efficiencies: 78.8 ± 7.9 × 10^4
[9]; PALA 40 μM
  Relative Colony Forming Efficiencies: 46.5 ± 9.9 × 10^4
[9]; PALA 50 μM
  Relative Colony Forming Efficiencies: 25.0 ± 6.8 × 10^4
[9]; PALA 60 μM
  Relative Colony Forming Efficiencies: 10.7 ± 3.0 × 10^4
[10]; PALA 20 μM
  Relative Colony Forming Efficiencies: 406.7 ± 202.2 × 10^4
[10]; PALA 30 μM
  Relative Colony Forming Efficiencies: 39.4 ± 16.4 × 10^4
[10]; PALA 40 μM
  Relative Colony Forming Efficiencies: 23.3 ± 10.4 × 10^4
[10]; PALA 50 μM
  Relative Colony Forming Efficiencies: 7.9 ± 1.7 × 10^4
[10]; PALA 60 μM
  Relative Colony Forming Efficiencies: 3.6 ± 0.6 × 10^4
[11]; PALA 10 μM
  Relative Colony Forming Efficiencies: 1183 ± 384 × 10^4
[11]; PALA 20 μM
  Relative Colony Forming Efficiencies: 86.1 ± 32.9 × 10^4
[11]; PALA 30 μM
  Relative Colony Forming Efficiencies: 19.5 ± 4.7 × 10^4
[11]; PALA 40 μM
  Relative Colony Forming Efficiencies: 4.7 ± 0.6 × 10^4
[11]; PALA 50 μM
  Relative Colony Forming Efficiencies: 2.1 ± 0.8 × 10^4
[11]; PALA 60 μM
  Relative Colony Forming Efficiencies: 0.3 ± 0.2 × 10^4
[12]; PALA 10 μM
  Relative Colony Forming Efficiencies: 5.28 ± 1.5 × 10^4
[12]; PALA 15 μM
  Relative Colony Forming Efficiencies: 5.83 ± 2.7 × 10^4
[12]; PALA 20 μM
  Relative Colony Forming Efficiencies: 0.30 ± 0.1 × 10^4
[12]; PALA 25 μM
  Relative Colony Forming Efficiencies: 0.53 ± 0.3 × 10^4
[12]; PALA 30 μM
  Relative Colony Forming Efficiencies: 0.48 ± 0.08 × 10^4
[12]; PALA 40 μM
  Relative Colony Forming Efficiencies: 0.27 ± 0.2 × 10^4
[13]; PALA 10 μM
  Relative Colony Forming Efficiencies: 6.22 ± 3.3 × 10^4
[13]; PALA 15 μM
  Relative Colony Forming Efficiencies: 10.0 ± 5.5 × 10^4
[13]; PALA 20 μM
  Relative Colony Forming Efficiencies: 1.71 ± 1.2 × 10^4
[13]; PALA 25 μM
  Relative Colony Forming Efficiencies: 0.8 ± 0.7 × 10^4
[13]; PALA 30 μM
  Relative Colony Forming Efficiencies: 1.03 ± 0.07 × 10^4
[13]; PALA 40 μM
  Relative Colony Forming Efficiencies: 0.14 ± 0.08 × 10^4
[14]; PALA 10 μM
  Relative Colony Forming Efficiencies: 965.0 ± 529.7 × 10^4
[14]; PALA 20 μM
  Relative Colony Forming Efficiencies: 120.1 ± 28.4 × 10^4
[14]; PALA 40 μM
  Relative Colony Forming Efficiencies: 25.0 ± 4.6 × 10^4
[14]; PALA 50 μM
  Relative Colony Forming Efficiencies: 27.6 ± 8.9 × 10^4
[14]; PALA 60 μM
  Relative Colony Forming Efficiencies: 25.0 ± 6.4 × 10^4
[14]; PALA 80 μM
  Relative Colony Forming Efficiencies: 27.1 ± 6.75 × 10^4
[15]
  Relative colony Forming Efficiency: 350 ± 50
[16]; PALA 20 μM
  Relative colony Forming Efficiency: 377 ± 21
[16]; PALA 30 μM
  Relative colony Forming Efficiency: 311 ± 9.5
[17]; PALA 10 μM
  Relative Colony Forming Efficiencies: 2083 ± 960 × 10^4
[17]; PALA 20 μM
  Relative Colony Forming Efficiencies: 368 ± 154 × 10^4
[17]; PALA 30 μM
  Relative Colony Forming Efficiencies: 316 ± 171 × 10^4
[17]; PALA 40 μM
  Relative Colony Forming Efficiencies: 116 ± 54 × 10^4
[17]; PALA 50 μM
  Relative Colony Forming Efficiencies: 41.7 ± 23 × 10^4
[17]; PALA 60 μM
  Relative Colony Forming Efficiencies: 13.2 ± 6.3 × 10^4
